Test results published in patent US10392422B2, “Macrocyclic broad spectrum antibiotics” (priority 2014, dated 2019).
Converted amounts (≈) assume the structure as drawn. Read-outs that look alike come from different tables or passages of the source.

Legend:
Assay in all cases: MIC, broth micro-dilution technique (CLSI)
[1] = test system: Escherichia coli MC4100 harboring the IMP4213; format: cell-based; conditions: for MIC: Escherichia coli, 22 h; for MIC (μg/mL) E. coli: Table 1 protocol: serial 2-fold dilutions starting from 64 μg/ml
Protocol: (§1) In vitro antimicrobial activity of each compound was determined by measuring minimal inhibitor concentrations (MICs) using the broth micro-dilution technique as approved by the Clinical and Laboratory Standards Institute (CLSI) (Methods for Dilution Antimicrobial Susceptibility Tests for Bacteria that Grow Aerobically; Approved Standard—Eighth Edition. CLSI document M07-A8. Wayne, Pa.: Clinical and Laboratory Standards; 2009). Antibacterial activity was measured against three strains of bacteria: a Methicillin Resistant Staphylococcus aureus strain USA 300 (NRS384); a MRSA COL (NRS100), another Methicillin Resistant Staphylococcus aureus strain; and a strain of Escherichia coli MC4100 harboring the IMP4213, which results in increased outer-membrane permeability (B Martin and Silhavy T. Imp/OstA is required for cell envelope biogenesis in Escherichia coli. (2002) Molecular Microbiology, 45(5), 1289-1302). Cells were inoculated onto plates of Trypyticase Soy Agar or Luria Agar respectively and grown at 35° C. for 20 hours. Inocula suspensions were prepared by scraping cells into 1 ml of testing media (cation adjusted Mueller Hinton Broth supplemented with 0.002% v/v Tween-80) and diluting to a final OD600 nm of 0.01.
(§2) Test compounds were prepared in DMSO at a concentration of 10 mg/ml. These compound stocks were diluted into testing media at a concentration of 64 μg/ml and serial 2-fold dilutions were made in the same media, in 96-well U bottom microtiter dishes, for a total of 10 compound concentrations (Table 1). In modified protocols (Table 2), compound stocks were diluted into testing media at a concentration of 4 μg/mL and serial 2-fold dilutions were made in the same media, in 96-well U bottom microtiter dishes, for a total of 10 compound concentrations. Inocula suspensions were added to the 2-fold serial dilutions of test compounds to a final density of OD OD600 nm of 0.0005 and incubated at 35° C. for 22 hours. […] The results from the protocol starting from a concentration of 64 µg/mL are listed in Table 1 and the results from the modified protocol are shown in Table 2.

[2] = test system: Methicillin Resistant Staphylococcus aureus strain USA 300 (NRS384); format: cell-based; conditions: for MIC: Staphylococcus aureus, 22 h, read-out: MIC (μg/mL) S. aureus
Protocol: as §1, §2

[3] = test system: MRSA COL (NRS100); format: cell-based, Staphylococcus aureus; conditions: for MIC: Staphylococcus aureus, 22 h, read-out: MIC (μg/mL) (COL)
Protocol: as §1, §2

[4] = read-out: MIC (μg/mL) E. coli, Table 1 protocol: serial 2-fold dilutions starting from 64 μg/ml, 35° C., 22 hours
[5] = Table 1 protocol: serial 2-fold dilutions starting from 64 μg/ml, 35° C., 22 hours

Row | Structure (SMILES) | MIC [1, 4] [µg/mL] | MIC [2, 5] [µg/mL] | MIC [3, 5] [µg/mL] | MIC [2] [µg/mL] | MIC [3] [µg/mL] | other results
1 | C[C@@H]1NC(=O)[C@@H](N(C)C(=O)[C@H](CCCCN)NC(=O)c2ccc(-c3ccc(Cl)cc3)cc2)c2ccc(O)c(c2)-c2cc(ccc2O)C[C@@H](C(=O)N[C@@H](C)C(=O)C(=O)N[C@@H]2CCNC2=O)NC1=O [Compound 142] | 16 (≈ 17.1 µM) | 64 (≈ 68.3 µM) | 16 (≈ 17.1 µM) | – | – | –
2 | C[C@@H]1NC(=O)[C@@H](N(C)C(=O)[C@H](CCCCN)NC(=O)c2ccc(-c3ccc(Cl)cc3)cc2)c2ccc(O)c(c2)-c2cc(ccc2O)C[C@@H](C(=O)N[C@@H](C)/C=C/S(C)(=O)=O)NC1=O [Compound 144] | 32 (≈ 36.1 µM) | – | – | 8 (≈ 9.01 µM) | 2 (≈ 2.25 µM) | –
3 | C[C@@H]1NC(=O)[C@@H](N(C)C(=O)[C@H](CCCCN)NC(=O)c2ccc(-c3ccc(Cl)cc3)cc2)c2ccc(O)c(c2)-c2cc(ccc2O)C[C@@H](C(=O)N[C@@H](C)/C=C\S(C)(=O)=O)NC1=O [Compound 145] | > 64 | – | – | > 64 | 64 (≈ 72.1 µM) | –
4 | C[C@H](NC(=O)CCC(=O)[C@H](C)NC(=O)[C@@H]1Cc2ccc(O)c(c2)-c2cc(ccc2O)[C@H](N(C)C(=O)[C@H](CCCCN)NC(=O)c2ccc(-c3ccc(Cl)cc3)cc2)C(=O)N[C@@H](C)C(=O)N1)C(=O)O [Compound 147] | > 64 | – | – | > 64 | > 64 | –
5 | CNC(=O)CCC(=O)[C@H](C)NC(=O)[C@@H]1Cc2ccc(O)c(c2)-c2cc(ccc2O)[C@H](N(C)C(=O)[C@H](CCCCN)NC(=O)c2ccc(-c3ccc(Cl)cc3)cc2)C(=O)N[C@@H](C)C(=O)N1 [Compound 149] | 64 (≈ 71.4 µM) | > 64 | 64 (≈ 71.4 µM) | – | – | –
6 | C[C@@H]1NC(=O)[C@@H](N(C)C(=O)[C@H](CCCCN)NC(=O)c2ccc(-c3ccc(Cl)cc3)cc2)c2ccc(O)c(c2)-c2cc(ccc2O)C[C@@H](C(=O)N[C@@H](C)C(=O)C(F)(F)C(=O)O)NC1=O [Compound 152] | – | – | – | – | – | MIC (μg/mL) E. coli ([1]; 35° C., 22 hours): 16 µg/mL (≈ 17.7 µM); MIC (μg/mL) S. aureus [2, 5]: 10 µg/mL (≈ 11 µM); MIC (μg/mL) (COL) [3, 5]: 4 µg/mL (≈ 4.42 µM)
7 | C[C@@H]1NC(=O)[C@@H](N(C)C(=O)[C@H](CCCCN)NC(=O)c2ccc(-c3ccc(Cl)cc3)cc2)c2ccc(O)c(c2)-c2cc(ccc2O)C[C@@H](C(=O)N[C@@H](C)C(=O)N(C)[C@@H](CC(=O)O)C(N)=O)NC1=O [Compound 158] | 64 (≈ 67 µM) | – | – | 23 (≈ 24.1 µM) | 8 (≈ 8.37 µM) | –
8 | C[C@@H]1NC(=O)[C@@H](N(C)C(=O)[C@H](CCCCN)NC(=O)c2ccc(-c3ccc(Cl)cc3)cc2)c2ccc(O)c(c2)-c2cc(ccc2O)C[C@@H](C(=O)N[C@@H](C)C(=O)N(C)[C@@H](CCC(=O)O)C(N)=O)NC1=O [Compound 159] | 32 (≈ 33 µM) | 23 (≈ 23.7 µM) | 8 (≈ 8.25 µM) | – | – | –
9 | C[C@@H]1NC(=O)[C@@H](N(C)C(=O)[C@H](CCCCN)NC(=O)c2ccc(-c3ccc(Cl)cc3)cc2)c2ccc(O)c(c2)-c2cc(ccc2O)C[C@@H](C(=O)N[C@@H](C)C(=O)N2CCCC23CCNC3=O)NC1=O (stereo partly drawn) [Compound 160] | 64 (≈ 67.4 µM) | > 64 | > 64 | – | – | –
10 | C[C@@H]1NC(=O)[C@@H](N(C)C(=O)[C@H](CCCCN)NC(=O)c2ccc(-c3ccc(Cl)cc3)cc2)c2ccc(O)c(c2)-c2cc(ccc2O)C[C@@H](C(=O)N[C@@H](C)C(=O)N2CCCC23CCNC3=O)NC1=O (stereo partly drawn) [Compound 161] | – | – | – | – | – | MIC (μg/mL) E. coli ([1]; 35° C., 22 hours): 64 µg/mL (≈ 67.4 µM); MIC (μg/mL) S. aureus [2, 5]: 64 µg/mL (≈ 67.4 µM); MIC (μg/mL) (COL) [3, 5]: 32 µg/mL (≈ 33.7 µM)
11 | C[C@H](NC(=O)[C@@H]1Cc2ccc(O)c(c2)-c2cc(ccc2O)[C@H](N(C)C(=O)[C@H](CCCCN)NC(=O)c2ccc(-c3ccc(Cl)cc3)cc2)C(=O)N[C@@H](C)C(=O)N1)C(=O)CNS(C)(=O)=O [Compound 162] | 32 (≈ 34.8 µM) | – | – | 8 (≈ 8.71 µM) | 2 (≈ 2.18 µM) | –
12 | CCCCCCCCCCNCCS(=O)(=O)N[C@@H](CCCCN)C(=O)N(C)[C@@H]1C(=O)N[C@@H](C)C(=O)N[C@H](C(=O)N[C@@H](C)C(C)=O)Cc2ccc(O)c(c2)-c2cc1ccc2O [Compound 163] | 16 (≈ 18.6 µM) | 0.13 (≈ 0.151 µM) | 0.11 (≈ 0.128 µM) | – | – | –
13 | C[C@H](NC(=O)[C@@H]1Cc2ccc(O)c(c2)-c2cc(ccc2O)[C@H](N(C)C(=O)[C@H](CCCCN)NC(=O)c2ccc(-c3ccc(Cl)cc3)cc2)C(=O)N[C@@H](C)C(=O)N1)C(=O)CP(=O)(O)O [Compound 166] | – | – | – | 32 (≈ 35.3 µM) | 8 (≈ 8.84 µM) | MIC ([1]; read-out: MIC (μg/mL) E. coli): > 64 µg/mL
